Measurements taken from ChEMBL document CHEMBL1201862, “PubChem BioAssay data set” (2004).
Calls of active or inactive are those of the source.

Columns and labels:
Assay type in all cases: functional
[1] = biological target: Glutathione-S-transferase (Schistosoma japonicum, UniProt Q26513); test: biotin-GST/anti-GST TR-FRET signal inhibitors, dose response, artefact control for Vif-APOBEC3G degradation inhibitor project, biochemical (AID 1117362)
[2] = biological target: T1, Tyrosine-protein phosphatase non-receptor type 7 (Homo sapiens, UniProt P35236)
T1 sequence (P35236 whole entry): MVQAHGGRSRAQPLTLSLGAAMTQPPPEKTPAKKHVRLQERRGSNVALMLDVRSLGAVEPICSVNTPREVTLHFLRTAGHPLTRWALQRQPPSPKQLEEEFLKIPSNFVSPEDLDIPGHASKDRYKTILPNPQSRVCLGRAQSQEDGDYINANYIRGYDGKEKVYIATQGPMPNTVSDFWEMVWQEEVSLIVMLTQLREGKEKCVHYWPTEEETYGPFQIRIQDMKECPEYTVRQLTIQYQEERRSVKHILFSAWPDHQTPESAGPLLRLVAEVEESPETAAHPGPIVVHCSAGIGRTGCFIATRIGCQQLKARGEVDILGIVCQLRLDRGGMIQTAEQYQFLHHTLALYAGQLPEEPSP

[3] = biological target: T2, Sentrin-specific protease 8 (Homo sapiens, UniProt Q96LD8); test: SENP8 protease inhibitors, SAR follow-up, biochemical, luminescence (AID 504501)
T2 sequence (Q96LD8 whole entry): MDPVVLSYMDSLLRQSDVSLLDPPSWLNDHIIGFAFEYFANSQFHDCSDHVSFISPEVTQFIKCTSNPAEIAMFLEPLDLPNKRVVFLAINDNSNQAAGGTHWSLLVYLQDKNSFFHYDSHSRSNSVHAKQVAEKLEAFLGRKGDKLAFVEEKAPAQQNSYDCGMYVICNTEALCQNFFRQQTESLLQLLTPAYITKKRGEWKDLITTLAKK

[4] = biological target: Serine/threonine-protein kinase pim-3 (Homo sapiens, UniProt Q86V86);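 also: value obtained as one member of a broad kinase panel profiling effort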
[5] = biological target: Dual specificity tyrosine-phosphorylation-regulated kinase 3 (Homo sapiens, UniProt O43781);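 also: measured as one member of a broad kinase panel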
[6] = biological target: Mitogen-activated protein kinase 8 (Homo sapiens, UniProt P45983);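 also: value comes from one member of a kinome-wide kinase profiling panel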
[7] = biological target: Mast/stem cell growth factor receptor Kit (Homo sapiens, UniProt P10721);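 also: KIT entry within a kinase panel assay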
[8] = biological target: Cell division cycle 7-related protein kinase (Homo sapiens, UniProt O00311);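 also: value obtained from a kinome-wide kinase panel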
[9] = biological target: Megakaryocyte-associated tyrosine-protein kinase (Homo sapiens, UniProt P42679);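 also: affinity measured as one member of a kinase panel (Navigating the Kinome) against MATK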
[10] = biological target: Proto-oncogene tyrosine-protein kinase ROS (Homo sapiens, UniProt P08922);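 also: ROS1 tested as one member of a kinome-wide kinase panel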
[11] = biological target: Serine/threonine-protein kinase 17A (Homo sapiens, UniProt Q9UEE5)
Hexokinase HKDC1 = biological target: T3, Hexokinase HKDC1 (Homo sapiens, UniProt Q2TB90); test: HKDC1 hexokinase inhibitors, SAR follow-up, biochemical, set 2 (AID 588355)
T3 sequence (Q2TB90 whole entry): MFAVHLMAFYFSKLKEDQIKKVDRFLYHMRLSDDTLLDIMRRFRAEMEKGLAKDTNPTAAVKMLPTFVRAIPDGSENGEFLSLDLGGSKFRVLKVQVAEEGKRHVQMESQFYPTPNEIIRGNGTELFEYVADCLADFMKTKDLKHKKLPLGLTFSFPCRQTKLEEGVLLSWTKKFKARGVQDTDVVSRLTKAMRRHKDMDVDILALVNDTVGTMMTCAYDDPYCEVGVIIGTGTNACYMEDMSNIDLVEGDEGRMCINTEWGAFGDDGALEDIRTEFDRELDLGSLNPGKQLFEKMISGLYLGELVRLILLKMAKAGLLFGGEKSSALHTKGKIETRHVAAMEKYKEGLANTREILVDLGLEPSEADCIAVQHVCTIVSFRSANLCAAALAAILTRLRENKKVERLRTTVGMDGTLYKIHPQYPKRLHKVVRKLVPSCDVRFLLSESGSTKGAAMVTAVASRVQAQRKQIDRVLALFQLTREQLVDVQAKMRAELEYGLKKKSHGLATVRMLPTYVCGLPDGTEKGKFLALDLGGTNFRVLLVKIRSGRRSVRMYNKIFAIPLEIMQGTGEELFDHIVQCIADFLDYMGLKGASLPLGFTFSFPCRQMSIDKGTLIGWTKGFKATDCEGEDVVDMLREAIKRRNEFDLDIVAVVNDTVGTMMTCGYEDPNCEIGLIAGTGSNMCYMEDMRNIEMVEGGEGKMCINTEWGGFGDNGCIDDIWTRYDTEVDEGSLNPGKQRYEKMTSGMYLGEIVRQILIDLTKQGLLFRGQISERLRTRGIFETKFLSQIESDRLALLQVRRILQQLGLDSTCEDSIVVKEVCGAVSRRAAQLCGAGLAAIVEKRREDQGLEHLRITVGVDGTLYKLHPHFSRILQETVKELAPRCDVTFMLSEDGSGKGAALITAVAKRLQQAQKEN

[12] = Counterscreen for AddAB inhibitors: absorbance-based bacterial cell-based high throughput dose response assay for inhibitors of bacterial viability. [Related pubchem assays (depositor defined):AID435030, AID449728, AID449731, AID488942, AID488955, AID488956]

Chain of Cell division cycle 7-related protein kinase (O00311 whole entry): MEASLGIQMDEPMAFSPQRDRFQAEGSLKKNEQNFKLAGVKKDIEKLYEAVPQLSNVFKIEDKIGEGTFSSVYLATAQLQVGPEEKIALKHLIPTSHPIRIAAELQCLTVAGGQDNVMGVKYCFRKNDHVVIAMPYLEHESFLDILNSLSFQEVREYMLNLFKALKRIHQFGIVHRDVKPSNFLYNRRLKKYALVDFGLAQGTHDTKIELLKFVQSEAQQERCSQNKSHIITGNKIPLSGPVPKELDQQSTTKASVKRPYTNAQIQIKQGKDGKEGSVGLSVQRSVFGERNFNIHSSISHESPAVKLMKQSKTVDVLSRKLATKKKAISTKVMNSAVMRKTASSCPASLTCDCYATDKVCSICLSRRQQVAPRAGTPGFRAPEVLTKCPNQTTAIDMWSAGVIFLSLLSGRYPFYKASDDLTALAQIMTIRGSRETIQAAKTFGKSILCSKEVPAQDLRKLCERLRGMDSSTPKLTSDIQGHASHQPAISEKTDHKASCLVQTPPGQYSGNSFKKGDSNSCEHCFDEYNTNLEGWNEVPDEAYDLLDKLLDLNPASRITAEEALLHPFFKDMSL
Chain of Serine/threonine-protein kinase 17A (Q9UEE5 whole entry): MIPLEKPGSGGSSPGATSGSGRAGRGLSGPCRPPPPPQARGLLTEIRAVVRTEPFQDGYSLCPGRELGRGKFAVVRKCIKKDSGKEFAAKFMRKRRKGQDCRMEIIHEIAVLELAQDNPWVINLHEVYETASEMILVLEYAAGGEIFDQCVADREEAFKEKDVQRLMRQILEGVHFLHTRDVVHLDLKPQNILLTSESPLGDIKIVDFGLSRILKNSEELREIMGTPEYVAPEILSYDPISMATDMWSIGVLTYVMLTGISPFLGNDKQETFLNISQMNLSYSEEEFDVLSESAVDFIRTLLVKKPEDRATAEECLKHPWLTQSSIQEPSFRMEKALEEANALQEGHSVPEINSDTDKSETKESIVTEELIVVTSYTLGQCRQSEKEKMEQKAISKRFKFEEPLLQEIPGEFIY
Chain of Mast/stem cell growth factor receptor Kit (P10721 whole entry): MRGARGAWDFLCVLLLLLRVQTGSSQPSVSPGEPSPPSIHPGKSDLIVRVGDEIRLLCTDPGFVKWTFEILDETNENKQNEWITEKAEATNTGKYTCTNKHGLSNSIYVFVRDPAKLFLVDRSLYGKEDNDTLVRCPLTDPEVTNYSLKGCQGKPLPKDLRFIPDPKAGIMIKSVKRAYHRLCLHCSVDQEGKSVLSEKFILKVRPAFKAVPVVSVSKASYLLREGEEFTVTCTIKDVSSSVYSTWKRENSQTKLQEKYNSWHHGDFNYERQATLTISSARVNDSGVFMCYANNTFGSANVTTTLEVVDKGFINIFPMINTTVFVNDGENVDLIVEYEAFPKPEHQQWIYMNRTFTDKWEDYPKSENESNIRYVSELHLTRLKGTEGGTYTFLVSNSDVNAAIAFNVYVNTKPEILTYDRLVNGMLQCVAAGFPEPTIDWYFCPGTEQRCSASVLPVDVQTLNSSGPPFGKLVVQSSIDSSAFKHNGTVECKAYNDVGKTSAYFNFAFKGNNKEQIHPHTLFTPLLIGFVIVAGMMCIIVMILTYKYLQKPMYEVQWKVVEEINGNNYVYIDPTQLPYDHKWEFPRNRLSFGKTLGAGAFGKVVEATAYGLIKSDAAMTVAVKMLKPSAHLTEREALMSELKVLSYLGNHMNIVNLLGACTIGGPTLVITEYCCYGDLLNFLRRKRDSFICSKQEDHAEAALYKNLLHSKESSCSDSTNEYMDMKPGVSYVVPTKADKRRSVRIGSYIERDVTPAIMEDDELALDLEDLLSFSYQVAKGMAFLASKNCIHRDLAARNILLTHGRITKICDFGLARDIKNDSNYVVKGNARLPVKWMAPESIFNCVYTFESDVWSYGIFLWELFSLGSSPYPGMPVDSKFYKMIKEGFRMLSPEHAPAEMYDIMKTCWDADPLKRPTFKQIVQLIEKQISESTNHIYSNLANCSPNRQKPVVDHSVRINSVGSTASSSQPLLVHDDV
Chain of Proto-oncogene tyrosine-protein kinase ROS (P08922 whole entry): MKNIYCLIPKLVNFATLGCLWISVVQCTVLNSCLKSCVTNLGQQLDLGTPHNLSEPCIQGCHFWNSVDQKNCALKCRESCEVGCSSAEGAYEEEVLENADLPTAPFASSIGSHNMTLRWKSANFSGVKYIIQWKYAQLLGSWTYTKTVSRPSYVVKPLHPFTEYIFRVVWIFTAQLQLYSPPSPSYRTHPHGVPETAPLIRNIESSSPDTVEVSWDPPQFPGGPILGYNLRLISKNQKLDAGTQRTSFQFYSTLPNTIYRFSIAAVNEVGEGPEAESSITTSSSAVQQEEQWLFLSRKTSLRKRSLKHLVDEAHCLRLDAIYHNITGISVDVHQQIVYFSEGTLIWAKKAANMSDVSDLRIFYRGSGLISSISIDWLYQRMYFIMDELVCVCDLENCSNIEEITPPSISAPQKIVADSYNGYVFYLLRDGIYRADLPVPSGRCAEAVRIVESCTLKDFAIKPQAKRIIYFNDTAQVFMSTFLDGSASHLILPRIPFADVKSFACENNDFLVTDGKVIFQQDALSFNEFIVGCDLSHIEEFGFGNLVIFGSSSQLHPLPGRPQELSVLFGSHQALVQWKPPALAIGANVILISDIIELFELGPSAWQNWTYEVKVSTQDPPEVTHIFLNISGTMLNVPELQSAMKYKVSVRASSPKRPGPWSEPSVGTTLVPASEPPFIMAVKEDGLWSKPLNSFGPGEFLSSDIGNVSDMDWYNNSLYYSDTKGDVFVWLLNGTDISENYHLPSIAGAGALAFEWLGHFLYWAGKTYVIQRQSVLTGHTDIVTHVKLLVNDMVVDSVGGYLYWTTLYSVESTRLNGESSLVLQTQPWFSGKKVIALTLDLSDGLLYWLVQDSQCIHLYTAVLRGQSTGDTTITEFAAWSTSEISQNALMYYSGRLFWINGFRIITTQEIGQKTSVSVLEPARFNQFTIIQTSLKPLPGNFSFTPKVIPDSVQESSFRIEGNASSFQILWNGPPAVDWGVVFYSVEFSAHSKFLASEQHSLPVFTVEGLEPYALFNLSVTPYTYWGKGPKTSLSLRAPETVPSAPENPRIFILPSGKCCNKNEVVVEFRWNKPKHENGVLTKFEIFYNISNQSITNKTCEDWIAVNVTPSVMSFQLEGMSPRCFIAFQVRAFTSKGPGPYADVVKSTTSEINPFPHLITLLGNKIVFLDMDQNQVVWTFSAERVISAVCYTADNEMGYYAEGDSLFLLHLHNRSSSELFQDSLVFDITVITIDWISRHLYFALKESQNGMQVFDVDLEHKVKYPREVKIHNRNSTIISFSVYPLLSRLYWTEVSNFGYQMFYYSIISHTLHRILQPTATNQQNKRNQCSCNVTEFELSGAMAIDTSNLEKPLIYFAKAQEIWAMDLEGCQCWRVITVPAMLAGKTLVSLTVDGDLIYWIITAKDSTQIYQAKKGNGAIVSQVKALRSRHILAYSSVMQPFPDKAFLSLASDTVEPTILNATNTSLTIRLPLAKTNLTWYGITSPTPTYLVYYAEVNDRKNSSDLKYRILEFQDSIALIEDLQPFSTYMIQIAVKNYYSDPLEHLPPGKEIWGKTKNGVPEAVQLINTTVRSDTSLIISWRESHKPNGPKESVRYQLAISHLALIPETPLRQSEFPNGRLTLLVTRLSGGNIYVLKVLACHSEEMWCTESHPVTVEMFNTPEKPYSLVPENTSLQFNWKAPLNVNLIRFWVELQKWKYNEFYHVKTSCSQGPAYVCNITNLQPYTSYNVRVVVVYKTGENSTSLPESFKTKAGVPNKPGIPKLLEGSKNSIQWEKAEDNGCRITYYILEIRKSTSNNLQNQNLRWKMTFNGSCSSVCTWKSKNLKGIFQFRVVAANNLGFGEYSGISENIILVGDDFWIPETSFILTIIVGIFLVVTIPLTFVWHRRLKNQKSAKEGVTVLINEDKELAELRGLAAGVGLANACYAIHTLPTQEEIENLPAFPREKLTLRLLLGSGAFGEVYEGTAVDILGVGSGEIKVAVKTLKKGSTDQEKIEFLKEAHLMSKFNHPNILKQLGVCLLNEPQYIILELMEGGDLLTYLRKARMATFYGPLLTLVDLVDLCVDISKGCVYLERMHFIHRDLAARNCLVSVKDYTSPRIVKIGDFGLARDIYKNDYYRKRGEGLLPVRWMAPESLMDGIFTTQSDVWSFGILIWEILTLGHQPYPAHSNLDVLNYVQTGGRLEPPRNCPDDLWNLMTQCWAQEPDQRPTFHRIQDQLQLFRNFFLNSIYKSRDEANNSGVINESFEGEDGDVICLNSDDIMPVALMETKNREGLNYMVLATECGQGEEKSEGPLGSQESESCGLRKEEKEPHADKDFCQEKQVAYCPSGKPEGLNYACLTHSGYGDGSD
Chain of Dual specificity tyrosine-phosphorylation-regulated kinase 3 (O43781 whole entry): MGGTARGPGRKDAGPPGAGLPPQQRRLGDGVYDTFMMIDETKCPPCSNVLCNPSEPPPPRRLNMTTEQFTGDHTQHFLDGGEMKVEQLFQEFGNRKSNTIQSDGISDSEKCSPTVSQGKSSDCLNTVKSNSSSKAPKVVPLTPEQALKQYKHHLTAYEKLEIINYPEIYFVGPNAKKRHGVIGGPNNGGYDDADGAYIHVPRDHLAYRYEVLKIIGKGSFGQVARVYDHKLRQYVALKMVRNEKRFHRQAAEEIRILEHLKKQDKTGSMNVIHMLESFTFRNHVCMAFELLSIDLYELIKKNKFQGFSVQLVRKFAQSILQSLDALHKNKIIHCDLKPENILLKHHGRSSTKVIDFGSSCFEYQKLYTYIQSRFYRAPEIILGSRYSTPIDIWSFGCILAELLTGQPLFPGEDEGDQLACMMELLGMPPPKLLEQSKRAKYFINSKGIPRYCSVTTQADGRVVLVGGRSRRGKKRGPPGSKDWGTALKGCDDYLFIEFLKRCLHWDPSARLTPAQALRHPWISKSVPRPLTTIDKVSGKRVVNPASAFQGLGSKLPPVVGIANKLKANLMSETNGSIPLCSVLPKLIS

SMILES: O=C(O)C1Nc2c(O)cc(Cl)c([N+](=O)[O-])c2C2C=CCC12 (centres undefined)
- IC50 [1]: > 100 µM (active)
- IC50 [2]: 3.84 µM (active)

SMILES: O=C(CCc1ccccc1)NNc1cc(N2CCCCC2)nc(N2CCCCC2)n1
- IC50 [3]: > 99 µM (inactive)

SMILES: Cc1n[nH]c2ccc(-c3cncc(OCC(N)Cc4cccc(Cl)c4)c3)cc12 (centres undefined)
- Ki [4]: 10 nM (active)
- Ki [5]: 5.01 nM (active)
- Ki [6]: 2.51 µM (active)
- Ki [7]: > 1.26 µM (inactive)
- Ki [8]: 0.794 nM (active)
- pKi [8]: 9.1
- Ki [9]: > 2 µM (inactive)
- Ki [10]: 631 nM (active)
- Ki [11]: 501 nM (active)

SMILES: CC(=O)NC1C(=O)N(CCN2CCOCC2)c2ccc(F)cc21 (centres undefined)
- IC50 (Hexokinase HKDC1): 14.9 µM (active)

SMILES: Oc1ccc(N=Nc2c(O)ccc3ccccc23)cc1
- IC50 [12]: > 118 µM (inactive)
